Results: US20180118682A1, “PHARMACEUTICAL COMPOSITION CONTAINING A TRYPTOPHAN DERIVATIVE” (Ramot at Tel-Aviv University Ltd., priority 2010, published 2018)
Converted amounts (≈) assume the structure as drawn.

Columns and labels:
[1] = system: microorganisms (e.g. bacteria and fungi); test: microbial preservation of ophthalmic formulations according to European and US pharmacopeia standards; assay type: cell-based; conditions: European standards (Pharmacopeia 7.0) and US-Pharmacopeia
Excerpt: It can be particularly difficult to preserve formulations against microorganisms (e.g. bacteria and fungi), if the formulation contains a cyclodextrin derivative.
From different tests it can be seen that a sufficient microbial preservation of ophthalmic formulations is not possible with benzalkonium chloride, cetrimide and chlorhexidine according to the European standards (Pharmacopeia 7.0) and US standards (US-Pharmacopeia).

Candida albicans = test: preservation of ophthalmic formulation against Candida albicans; assay type: cell-based
Excerpt: (§1) For testing of the long term preservation of the ophthalmic formulations with metal-containing preservatives, the pharmaceutical compositions VI of example 4 was modified by adding thiomersal in a concentration of 0.01% by weight in the aqueous formulation.

[2] = aqueous solubility of compound (A) as a function of pH (UV-spectroscopy); assay type: physicochemical; conditions: for solubility: aqueous media, aqueous buffer, R-enantiomer used
Protocol: At acidic conditions, the solubility of the compound (A) is higher.
At alkaline pH-values, the solubility of the compound (A) is also better.
The solubility of the R-enantiomer of compound (A) was determined as a function of the pH-value by using UV-spectroscopy to quantify the concentration of the compound in a series of aqueous media.

[3] = equilibrium solubility in water at 20 °C with varying cyclodextrin content; assay type: physicochemical; conditions: thermodynamic from solid
Protocol: For testing the influence of the cyclodextrin content in ophthalmic formulations, the solubility of Compound (A) was tested.

[4] = system: retinal ganglion cell (RGC) apoptosis; test: rat glaucoma model (chronic ophthalmic hypertension), RGC apoptosis; assay type: in vivo, male Dark Aguti rat; conditions: low doses, intravitreal; compared to vehicle; 3 and 6 weeks after OHT induction
Protocol: In a male Dark Aguti rat model, glaucoma is produced by injection of hypertonic saline into episcleral veins of one eye to induce increased ophthalmic pressure (chronic ophthalmic hypertension), while the opposite eye serves as a control. In treatment groups, various doses of compound (A) of the instant invention are injected intravitreally (in […] volume) at the time of glaucoma induction and in some groups the administration continues for following 7 days to see whether such extended treatment results in increased efficacy.
The extent of retinal ganglion cell (RGC) apoptosis at 3 weeks and 6 weeks after chronic ophthalmic hypertension (OHT) induction is assessed in each animal by dynamic confocal scanning laser ophthalmoscopy and fluorescent-labeled Annexin V.
Animals are sacrificed after 3 and 6 weeks and their eyes are enucleated and fixed in 4% para-formaldehyde overnight. Afterwards, retinas are separated for assessing apoptosis related changes, for example visualized with FITC Annexin V kit (BD Biosciences, Franklin Laker (USA).

[5] = equilibrium solubility in citrate buffer saline pH6 with cyclodextrins (shake flask method); assay type: physicochemical; conditions: citrate buffer saline with cyclodextrin, pH 6, aqueous with cosolvent or surfactant or cyclodextrin, thermodynamic from solid, read-out: Solubility of compound (A)
Protocol: The equilibrium solubility of compound (A) was tested in a citrate buffer saline at pH6 in presence of different cyclodextrins by the shake flask method.

[6] = compatibility with ophthalmic excipients; assay type: physicochemical; conditions: aqueous solutions at pH 5.5
Excerpt: In the further series of tests, the compatibility of the compound (A) with other typical ophthalmic excipients was investigated.

[7] = octanol/water partition coefficient log P, pH-metric method (OECD draft guideline 122); assay type: physicochemical; conditions: titrated pH 1.9 to 10.9, 1.3 to 1.9 mM, various octanol/water ratios
Excerpt: The octanol/water partition coefficient log P of the compounds of the invention can be determined by accepted standard methods known to the person skilled in the art, such as OECD (1995), Test No. 107: Partition Coefficient (n-octanol/water): Shake Flask Method, OECD Guidelines for the Testing of Chemicals, Section 1: Physical-Chemical properties, OECD Publishing. doi: 10.1787/9789264069626-en.
The log P value may be determined according to the draft OECD guideline OECD (2000), OECD Draft guideline for the Testing of Chemicals: 122 Partition Coefficient (n-Octanol/Water): pH-Metric Method for Ionisable Substances. For Example, log P of compound (A) was investigated using OECD (2000) OECD Draft guideline for the Testing of Chemicals: 122. The sample was titrated in two triple titrations from pH 1.9 to pH 10.9 at concentrations of 1.3 to 1.9 mM in various ratios of octanol/water.

Aspergillus niger = test: preservation of ophthalmic formulation against Aspergillus niger; assay type: cell-based
Excerpt: as §1

Staphylococcus aureus = test: preservation of ophthalmic formulation against Staphylococcus aureus; assay type: cell-based
Excerpt: as §1

Pseudomonas aeruginosa = test: preservation of ophthalmic formulation against Pseudomonas aeruginosa; assay type: cell-based
Excerpt: as §1

[8] = 0.001 to 0.01% by weight in the aqueous formulation
[9] = composition VI with thiomersal 0.01% by weight, after 28 days

For cetrimide, the “sufficient microbial preservation of ophthalmic formulations” value (“sufficient microbial preservation” below) [1] was “not possible”.

For C/C=C/C=C/C(=O)O [sorbic acid], the “preservation against Candida albicans” value (Candida albicans; 0.3% by weight instead of thiomersal in composition VI, after 14 days) was “insufficient preservation”.

For [H]/N=C(\N/C(=N/[H])NCCCCCCNC(=N)NC(=N)Nc1ccc(Cl)cc1)Nc1ccc(Cl)cc1 [chlorhexidine], the “sufficient microbial preservation” value [1] was “not possible”.

Work on CC(C)(NC(=O)C(N)Cc1c[nH]c2ccccc12)C(=O)O (stereo not drawn) [compound (A), 2-[2-Amino-3-(1H-indol-3-yl)-propionylamino]-2-methyl-propionic acid] yielded a solubility ([2]; pH 4.6) of ~14 mg/mL (≈ 48.4 mM), a solubility ([2]; pH 6) of ~10 mg/mL (≈ 34.6 mM) and a solubility ([2]; pH 7) of ~10 mg/mL (≈ 34.6 mM). The solubility ([2]; pH 7.2) was ~14 mg/mL (≈ 48.4 mM), the “solubility (in words)” value ([2]; at acidic conditions) was “higher” and the “solubility (in words)” value ([2]; at alkaline pH-values) was “better”. For the same molecule, the “solubility (in words)” value ([2]; from pH 4.5 to 7) was “particularly low”, the solubility thermodynamic ([3]; water without cyclodextrin) was 11.6 mg/mL (≈ 40.1 mM) and the solubility thermodynamic ([3]; water with cyclodextrin (HPBCD), aqueous with cosolvent or surfactant or cyclodextrin, water containing 65 mg/ml cyclodextrin (HPBCD)) was 20.2 mg/mL. The solubility thermodynamic ([3]; water with cyclodextrin, aqueous with cosolvent or surfactant or cyclodextrin, water containing 165 mg/ml cyclodextrin) was 41.2 mg/mL, the RGC apoptosis [4] was “strong decrease” and the solubility ([5]; 100 mg/ml ACD (α-Cyclodextrin, Fluka)) was 12.7 mg/mL (≈ 43.9 mM). For the same molecule, the solubility ([5]; 110 mg/ml HPBCD (Kleptose HPB, Roquette)) was 27.9 mg/mL (≈ 96.4 mM), the solubility ([5]; 110 mg/ml HPGCD (Cavasol W8 HP Pharma, ISP)) was 16.2 mg/mL (≈ 56 mM) and the solubility ([5]; 110 mg/ml MBCD (Kleptose Crysmeb, Roquette)) was 28.7 mg/mL (≈ 99.2 mM). The “compatibility with further components (F) (hypromellose, carbomer, Gellan gum, preservatives)” value [6] was “no incompatibilities” and the logP [7] was < -1.

For benzalkonium chloride, the “sufficient microbial preservation” value [1] was “not possible”.

For C[CH2][Hg][S]c1ccccc1C(=O)[O-].[Na+] [thiomersal], the “activity meeting the compendia requirements” value (Aspergillus niger) was “sufficient activity”, the duration of preservation (Aspergillus niger; [8]) was ≥ 28 days and the reduction of organism (Aspergillus niger; [9]) was ≥ 5 log. The “activity meeting the compendia requirements” value (Candida albicans) was “sufficient activity”, the duration of preservation (Candida albicans; [8]) was ≥ 28 days and the reduction of organism (Candida albicans; [9]) was ≥ 5 log. The “activity meeting the compendia requirements” value (Staphylococcus aureus) was “sufficient activity”, the duration of preservation (Staphylococcus aureus; [8]) was ≥ 28 days and the reduction of organism (Staphylococcus aureus; [9]) was ≥ 5 log. For the same molecule, the “activity meeting the compendia requirements” value (Pseudomonas aeruginosa) was “sufficient activity”, the duration of preservation (Pseudomonas aeruginosa; [8]) was ≥ 28 days and the reduction of organism (Pseudomonas aeruginosa; [9]) was ≥ 5 log.
